Assay type in all cases: biochemical
Assay [1] has as its target MAP2K1 (Homo sapiens, UniProt Q02750). The assay can be described thus: Other kinase MSA: MAP2K1. As to conditions: 25 μM ATP, ERKtide substrate; pre-activation of ERK 30 min, detection after 60 minutes; read-out: IC50, Enzyme MAP2K1. Here is the method:
Kinase activity, unless otherwise indicated, was measured in vitro using an electrophoretic mobility shift assay (MSA). The phosphorylation of a peptide substrate by BTK and other kinases was measured. The kinase reactions were assembled in a total volume of 25 μL per well in 384 well plates. The following was added to each well: compound buffer (or control); enzyme buffer; and substrate buffer, as further described below. […]
(§1) Enzyme and compound/inhibitor were optionally pre-incubated. […] The kinase activity for the kinases in Table 3 were measured at 3 hours incubation time, except that in the case of MAP2K1 and MAP2K2 assay, pre-activation of ERK was done for 30 min with 6 μM of ATP, and then the detection of activated ERK in the presence of compounds was done after 60 minutes of incubation.
The terminated reactions were analyzed using a 12 channel LABCHIP® 3000 microfluidic detection instrument (available from Caliper Life Sciences, Waltham, Mass.). […] As substrate and product peptides were separated, two peaks of fluorescence were observed. Change in the relative fluorescence intensity of the substrate and product peaks was the parameter measured, reflecting enzyme activity. […] Capillary electrophoregrams (RDA acquisition files) were analyzed using HTS Well Analyzer software (available from Caliper Life Sciences, Waltham, Mass.). […]

The target of assay [2] is T1, BTK (Homo sapiens, UniProt Q06187).
T1 construct: purchased Nanosyn, Santa Clara, Calif; host or cells: 293HEK
The assay can be described thus: BTK kinase electrophoretic mobility shift assay (MSA). As to conditions: 50 μM ATP, 0.5 nM BTK enzyme (Nanosyn-293HEK, WT), 3 hours at 25° C.; all examples except 50, 51, 62 and 63; read-out: BTK IC50.

Assay [3] addresses EGFR (Homo sapiens, UniProt P00533). As to the kind of experiment: Other kinase MSA: EGFR. As to conditions: 5 μM ATP, CSKtide substrate, 3 hours; read-out: IC50, Enzyme EGFR. As for the experimental part: Kinase activity, unless otherwise indicated, was measured in vitro using an electrophoretic mobility shift assay (MSA). The phosphorylation of a peptide substrate by BTK and other kinases was measured. The kinase reactions were assembled in a total volume of 25 μL per well in 384 well plates. The following was added to each well: compound buffer (or control); enzyme buffer; and substrate buffer, as further described below.
as §1, with “pre-incubated. To each well was added: 8 μL of 2.5×ATP and substrate in 1× Master Buffer (1× Master Buffer as described above). The plate was incubated at room temperature for 3 hours. […] OG488 was Oregon Green dye, which was conjugated to the peptide substrate.” for “pre-incubated.”
The terminated reactions were analyzed using a 12 channel LABCHIP® 3000 microfluidic detection instrument (available from Caliper Life Sciences, Waltham, Mass.). […] Change in the relative fluorescence intensity of the substrate and product peaks was the parameter measured, reflecting enzyme activity. […]

The structures appear in SMILES notation.

T1 sequence (Q06187 whole entry): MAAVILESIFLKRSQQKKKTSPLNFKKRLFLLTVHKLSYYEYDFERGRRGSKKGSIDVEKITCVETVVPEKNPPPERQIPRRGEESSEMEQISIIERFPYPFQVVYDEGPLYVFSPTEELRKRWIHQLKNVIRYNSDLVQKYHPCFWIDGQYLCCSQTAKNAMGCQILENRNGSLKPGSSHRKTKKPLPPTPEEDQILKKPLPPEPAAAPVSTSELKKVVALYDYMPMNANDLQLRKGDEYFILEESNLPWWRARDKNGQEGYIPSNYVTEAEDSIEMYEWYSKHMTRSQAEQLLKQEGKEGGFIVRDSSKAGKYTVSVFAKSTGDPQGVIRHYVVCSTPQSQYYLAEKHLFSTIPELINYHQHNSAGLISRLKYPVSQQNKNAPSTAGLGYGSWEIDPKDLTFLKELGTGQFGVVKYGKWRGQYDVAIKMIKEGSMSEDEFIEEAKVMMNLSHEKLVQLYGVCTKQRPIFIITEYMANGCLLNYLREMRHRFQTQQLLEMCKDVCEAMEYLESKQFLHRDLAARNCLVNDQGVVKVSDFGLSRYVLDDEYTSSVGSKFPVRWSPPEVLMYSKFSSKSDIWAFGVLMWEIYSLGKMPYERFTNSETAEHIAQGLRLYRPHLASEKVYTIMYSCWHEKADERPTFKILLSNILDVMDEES
Chain of EGFR (P00533 25-1210, species assumed): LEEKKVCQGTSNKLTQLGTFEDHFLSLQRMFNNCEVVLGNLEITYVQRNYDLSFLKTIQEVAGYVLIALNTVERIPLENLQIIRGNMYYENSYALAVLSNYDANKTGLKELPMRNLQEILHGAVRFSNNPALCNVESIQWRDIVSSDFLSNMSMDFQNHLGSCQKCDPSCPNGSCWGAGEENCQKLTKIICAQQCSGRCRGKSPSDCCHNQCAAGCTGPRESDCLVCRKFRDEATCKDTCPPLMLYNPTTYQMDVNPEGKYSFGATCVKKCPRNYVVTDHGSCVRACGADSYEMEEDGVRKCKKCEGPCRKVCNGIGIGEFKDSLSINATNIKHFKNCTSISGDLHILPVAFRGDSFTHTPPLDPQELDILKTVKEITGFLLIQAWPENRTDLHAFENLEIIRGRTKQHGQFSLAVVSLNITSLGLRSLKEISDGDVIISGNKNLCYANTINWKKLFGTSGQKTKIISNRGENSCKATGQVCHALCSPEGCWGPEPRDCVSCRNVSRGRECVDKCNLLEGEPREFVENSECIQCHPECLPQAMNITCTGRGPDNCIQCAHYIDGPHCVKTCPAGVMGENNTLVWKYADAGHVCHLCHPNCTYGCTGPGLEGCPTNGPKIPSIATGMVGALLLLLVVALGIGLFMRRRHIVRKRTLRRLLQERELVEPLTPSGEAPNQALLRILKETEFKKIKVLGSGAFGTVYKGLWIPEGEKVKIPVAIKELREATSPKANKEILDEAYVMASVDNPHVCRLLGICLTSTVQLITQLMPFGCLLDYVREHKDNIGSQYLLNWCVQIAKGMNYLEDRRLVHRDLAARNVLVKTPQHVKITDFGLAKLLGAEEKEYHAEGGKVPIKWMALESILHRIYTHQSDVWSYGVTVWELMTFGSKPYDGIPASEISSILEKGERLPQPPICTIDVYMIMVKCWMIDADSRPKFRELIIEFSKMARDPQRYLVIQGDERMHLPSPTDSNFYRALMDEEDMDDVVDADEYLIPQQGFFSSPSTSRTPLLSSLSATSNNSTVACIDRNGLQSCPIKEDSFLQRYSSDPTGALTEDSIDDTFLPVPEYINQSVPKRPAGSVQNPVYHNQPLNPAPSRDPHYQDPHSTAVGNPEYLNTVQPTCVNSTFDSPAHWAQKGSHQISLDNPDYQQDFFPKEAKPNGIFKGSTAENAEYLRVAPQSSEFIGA
Chain of MAP2K1 (Q02750 whole entry, species assumed): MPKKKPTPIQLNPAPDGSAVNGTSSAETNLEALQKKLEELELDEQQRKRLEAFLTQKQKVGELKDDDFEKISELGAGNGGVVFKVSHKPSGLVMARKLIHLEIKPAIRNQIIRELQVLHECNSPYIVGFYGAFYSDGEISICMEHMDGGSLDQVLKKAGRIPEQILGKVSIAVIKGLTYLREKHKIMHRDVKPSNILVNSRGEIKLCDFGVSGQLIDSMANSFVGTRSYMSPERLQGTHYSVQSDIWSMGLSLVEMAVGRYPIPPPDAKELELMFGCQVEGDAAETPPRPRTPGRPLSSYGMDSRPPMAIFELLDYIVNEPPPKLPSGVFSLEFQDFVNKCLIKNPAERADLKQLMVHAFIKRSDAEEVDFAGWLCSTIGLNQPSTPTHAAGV

For the compound `C=CC(=O)N1CCC([C@@H]2CCNc3c(C(N)=O)c(-c4ccc(Oc5ccccc5)cc4)nn32)CC1` [Compound A, reference compound], the IC50 – broadly, the concentration needed to halve the response being measured – in assay [1] turned out to be 41.3 nM. For the compound `C=CC(=O)N1CCN([C@@H]2CCNc3c2nn(-c2ccc(Oc4ccccc4)cc2)c3C(N)=O)CC1` [Example 6, (7R)-2-(4-phenoxyphenyl)-7-[4-(prop-2-enoyl)piperazin-1-yl]-4,5,6,7-tetrahydro-2H-pyrazolo[4,3-b]pyridine-3-carboxamide], the half-maximal inhibitory concentration (IC50) in assay [2] came to 1.1 nM; in assay [3], 844 nM.
